System: fulvestrant-resistant MCF7:5C-FR cells
Test: Fulvestrant-resistant breast cancer cell viability (cell proliferation) assay
Assay type: cell-based
Settings: 120 h, growth inhibition in fulvestrant-resistant MCF-7:CFR cells, 120 hrs
Summary of the method: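 Cells were treated the day after seeding with compounds at 3 nM to 10 uM for 120 h, with 0.1% DMSO vehicle and 1 uM JQ1 as positive control. Hoechst 33342-stained (5 μg/ml, 90 min, 37 C) nuclei were imaged and counted, and cell numbers normalized to vehicle.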

Structure (SMILES)	IC50 [nM]
CCS(=O)(=O)Nc1cc(-c2cn(C)c3c(=O)[nH]ccc23)cc2c1ccn2C(C)(c1nccs1)c1nccs1 [Compound 102, N-(1-(1,1-di(thiazol-2-yl)ethyl)-6-(1-methyl-7-oxo-6,7-dihydro-1H-pyrrolo[2,3-c]pyridin-3-yl)-1H-indol-4-yl)ethanesulfonamide]	< 1000
CCC(=O)Nc1cc(-c2cn(C)c3c(=O)[nH]ccc23)cc2c1ccn2C(C)(c1cnccn1)c1cnccn1 [Compound 104, N-(1-(1,1-di(pyrazin-2-yl)ethyl)-6-(1-methyl-7-oxo-6,7-dihydro-1H-pyrrolo[2,3-c]pyridin-3-yl)-1H-indol-4-yl)propionamide]	< 1000
CCS(=O)(=O)c1cccc2c1nc(-c1cn(C)c3c(O)nccc13)n2[C@H](c1ccccc1)C1CCOCC1 [Compound 115, (S)-3-(4-(ethylsulfonyl)-1-(phenyl(tetrahydro-2H-pyran-4-yl)methyl)-1H-benzo[d]imidazol-2-yl)-1-methyl-1H-pyrrolo[2,3-c]pyridin-7-ol]	< 1000
Cn1cc(-c2cc3c(C(C)(C)O)cccc3n2[C@@H](c2ccccc2)C2CCOCC2)c2ccnc(O)c21 [Compound 116, (R)-3-(4-(2-hydroxypropan-2-yl)-1-(phenyl(tetrahydro-2H-pyran-4-yl)methyl)-1H-indol-2-yl)-1-methyl-1H-pyrrolo[2,3-c]pyridin-7-ol]	< 1000
Cn1cc(-c2cc3c(C(C)(C)O)cccc3n2[C@H](c2ccccc2)C2CCOCC2)c2ccnc(O)c21 [Compound 117, (S)-3-(4-(2-hydroxypropan-2-yl)-1-(phenyl(tetrahydro-2H-pyran-4-yl)methyl)-1H-indol-2-yl)-1-methyl-1H-pyrrolo[2,3-c]pyridin-7-ol]	< 1000
CC(=O)Nc1cccc2c1cc(-c1cn(C)c3c(O)nccc13)n2[C@@H](c1ccccc1)C1CCOCC1 [Compound 118, (R)-N-(2-(7-hydroxy-1-methyl-1H-pyrrolo[2,3-c]pyridin-3-yl)-1-(phenyl(tetrahydro-2H-pyran-4-yl)methyl)-1H-indol-4-yl)acetamide]	< 1000
CC(=O)Nc1cccc2c1cc(-c1cn(C)c3c(O)nccc13)n2[C@H](c1ccccc1)C1CCOCC1 [Compound 119, (S)-N-(2-(7-hydroxy-1-methyl-1H-pyrrolo[2,3-c]pyridin-3-yl)-1-(phenyl(tetrahydro-2H-pyran-4-yl)methyl)-1H-indol-4-yl)acetamide]	< 1000
CCS(=O)(=O)c1cccc2c1cc(-c1cn(C)c3c(O)nccc13)n2[C@H](c1ccccc1)C1CCOCC1 [Compound 120, (S)-3-(4-(ethylsulfonyl)-1-(phenyl(tetrahydro-2H-pyran-4-yl)methyl)-1H-indol-2-yl)-1-methyl-1H-pyrrolo[2,3-c]pyridin-7-ol]	< 1000
CCS(=O)(=O)c1cccc2c1cc(-c1cn(C)c3c(O)nccc13)n2[C@@H](c1ccccc1)C1CCOCC1 [Compound 121, (R)-3-(4-(ethylsulfonyl)-1-(phenyl(tetrahydro-2H-pyran-4-yl)methyl)-1H-indol-2-yl)-1-methyl-1H-pyrrolo[2,3-c]pyridin-7-ol]	< 1000
Cn1cc(-c2cc3c(NS(C)(=O)=O)cccc3n2[C@H](c2ccccc2)C2CCOCC2)c2ccnc(O)c21 [Compound 122, (S)-N-(2-(7-hydroxy-1-methyl-1H-pyrrolo[2,3-c]pyridin-3-yl)-1-(phenyl(tetrahydro-2H-pyran-4-yl)methyl)-1H-indol-4-yl)methanesulfonamide]	< 1000
Cn1cc(-c2cc3c(NS(C)(=O)=O)cccc3n2[C@@H](c2ccccc2)C2CCOCC2)c2ccnc(O)c21 [Compound 123, (R)-N-(2-(7-hydroxy-1-methyl-1H-pyrrolo[2,3-c]pyridin-3-yl)-1-(phenyl(tetrahydro-2H-pyran-4-yl)methyl)-1H-indol-4-yl)methanesulfonamide]	< 1000
CC(C)C(=O)Nc1cccc2c1cc(-c1cn(C)c3c(O)nccc13)n2[C@@H](c1ccccc1)C1CCOCC1 [Compound 124, (R)-N-(2-(7-hydroxy-1-methyl-1H-pyrrolo[2,3-c]pyridin-3-yl)-1-(phenyl(tetrahydro-2H-pyran-4-yl)methyl)-1H-indol-4-yl)isobutyramide]	< 1000
CC(C)C(=O)Nc1cccc2c1cc(-c1cn(C)c3c(O)nccc13)n2[C@H](c1ccccc1)C1CCOCC1 [Compound 125, (S)-N-(2-(7-hydroxy-1-methyl-1H-pyrrolo[2,3-c]pyridin-3-yl)-1-(phenyl(tetrahydro-2H-pyran-4-yl)methyl)-1H-indol-4-yl)isobutyramide]	< 1000
CCC(c1ccccn1)(c1ccccn1)n1c(-c2cn(C)c3c(O)nccc23)nc2c(NS(=O)(=O)CC)cccc21 [Compound 127, N-(1-(1,1-di(pyridin-2-yl)propyl)-2-(7-hydroxy-1-methyl-1H-pyrrolo[2,3-c]pyridin-3-yl)-1H-benzo[d]imidazol-4-yl)ethanesulfonamide]	< 1000

The next lines start with the values.

IC50 [nM]	Structure (SMILES)
< 1000	Cc1cc(F)cc(C)c1Cn1ccc2c(NS(C)(=O)=O)cc(-c3cn(C)c4c(=O)[nH]ccc34)cc21 [Compound 101, N-(1-(4-fluoro-2,6-dimethylbenzyl)-6-(1-methyl-7-oxo-6,7-dihydro-1H-pyrrolo[2,3-c]pyridin-3-yl)-1H-indol-4-yl)methanesulfonamide]
< 1000	CC(=O)Nc1cc(-c2cn(C)c3c(=O)[nH]ccc23)cc2c1ccn2Cc1cccc(F)c1 [Compound 103, N-(1-(3-fluorobenzyl)-6-(1-methyl-7-oxo-6,7-dihydro-1H-pyrrolo[2,3-c]pyridin-3-yl)-1H-indol-4-yl)acetamide]
< 1000	Cn1cc(-c2cc(C(C)(C)O)c3ccn(CC4(C)COC4)c3c2)c2cc[nH]c(=O)c21 [Compound 105, 3-(4-(2-hydroxypropan-2-yl)-1-((3-methyloxetan-3-yl)methyl)-1H-indol-6-yl)-1-methyl-1,6-dihydro-7H-pyrrolo[2,3-c]pyridin-7-one]
< 1000	Cn1cc(-c2cc(C(C)(C)O)c3ccn(CC4CC(F)(F)C4)c3c2)c2cc[nH]c(=O)c21 [Compound 106, 3-(1-((3,3-difluorocyclobutyl)methyl)-4-(2-hydroxypropan-2-yl)-1H-indol-6-yl)-1-methyl-1,6-dihydro-7H-pyrrolo[2,3-c]pyridin-7-one]
< 1000	Cn1cc(-c2cc(C(C)(C)O)c3ccn(Cc4cccc(F)c4)c3c2)c2cc[nH]c(=O)c21 [Compound 107, 3-(1-(3-fluorobenzyl)-4-(2-hydroxypropan-2-yl)-1H-indol-6-yl)-1-methyl-1,6-dihydro-7H-pyrrolo[2,3-c]pyridin-7-one]
< 1000	Cc1cc(F)cc(C)c1Cn1ccc2c(C(C)(C)O)cc(-c3cn(C)c4c(=O)[nH]ccc34)cc21 [Compound 108, 3-(1-(4-fluoro-2,6-dimethylbenzyl)-4-(2-hydroxypropan-2-yl)-1H-indol-6-yl)-1-methyl-1,6-dihydro-7H-pyrrolo[2,3-c]pyridin-7-one]
< 1000	Cn1cc(-c2cc(C(C)(C)O)c3ccn(C(C)(c4cnccn4)c4cnccn4)c3c2)c2cc[nH]c(=O)c21 [Compound 109, 3-(1-(1,1-di(pyrazin-2-yl)ethyl)-4-(2-hydroxypropan-2-yl)-1H-indol-6-yl)-1-methyl-1,6-dihydro-7H-pyrrolo[2,3-c]pyridin-7-one]
< 1000	Cn1ccnc1C(C)(c1nccn1C)n1ccc2c(C(C)(C)O)cc(-c3cn(C)c4c(=O)[nH]ccc34)cc21 [Compound 110, 3-(1-(1,1-bis(1-methyl-1H-imidazol-2-yl)ethyl)-4-(2-hydroxypropan-2-yl)-1H-indol-6-yl)-1-methyl-1,6-dihydro-7H-pyrrolo[2,3-c]pyridin-7-one]
< 1000	Cn1cc(-c2cc(C(C)(C)O)c3ccn(C(C)(c4nccs4)c4nccs4)c3c2)c2cc[nH]c(=O)c21 [Compound 111, 3-(1-(1,1-di(thiazol-2-yl)ethyl)-4-(2-hydroxypropan-2-yl)-1H-indol-6-yl)-1-methyl-1,6-dihydro-7H-pyrrolo[2,3-c]pyridin-7-one]
< 1000	Cc1cccc(C)c1Cn1ccc2c(C(C)(C)O)cc(-c3cn(C)c4c(=O)[nH]ccc34)cc21 [Compound 113, 3-(1-(2,6-dimethylbenzyl)-4-(2-hydroxypropan-2-yl)-1H-indol-6-yl)-1-methyl-1,6-dihydro-7H-pyrrolo[2,3-c]pyridin-7-one]
< 1000	Cc1cccc(Cl)c1Cn1ccc2c(C(C)(C)O)cc(-c3cn(C)c4c(=O)[nH]ccc34)cc21 [Compound 114, 3-(1-(2-chloro-6-methylbenzyl)-4-(2-hydroxypropan-2-yl)-1H-indol-6-yl)-1-methyl-1,6-dihydro-7H-pyrrolo[2,3-c]pyridin-7-one]
< 10	CCC(c1ccccn1)(c1ccccn1)n1ccc2c(NS(=O)(=O)CC)cc(-c3cn(C)c4c(=O)[nH]ccc34)cc21 [Compound 126, N-(1-(1,1-di(pyridin-2-yl)propyl)-6-(1-methyl-7-oxo-6,7-dihydro-1H-pyrrolo[2,3-c]pyridin-3-yl)-1H-indol-4-yl)ethanesulfonamide]
< 1000	Cn1cc(-c2cc(S(C)(=O)=O)c3ccn(C(C)(c4ccccn4)c4ccccn4)c3c2)c2cc[nH]c(=O)c21 [Compound 128, 3-(1-(1,1-di(pyridin-2-yl)ethyl)-4-(methylsulfonyl)-1H-indol-6-yl)-1-methyl-1,6-dihydro-7H-pyrrolo[2,3-c]pyridin-7-one]
< 1000	CCS(=O)(=O)c1cc(-c2cn(C)c3c(=O)[nH]ccc23)cc2c1ccn2C(C)(c1ccccn1)c1ccccn1 [Compound 129, 3-(1-(1,1-di(pyridin-2-yl)ethyl)-4-(ethylsulfonyl)-1H-indol-6-yl)-1-methyl-1,6-dihydro-7H-pyrrolo[2,3-c]pyridin-7-one]
< 100	CC(C)C(=O)Nc1cc(-c2cn(C)c3c(=O)[nH]ccc23)cc2c1ccn2C(C)(c1ccccn1)c1ccccn1 [Compound 131, N-(1-(1,1-di(pyridin-2-yl)ethyl)-6-(1-methyl-7-oxo-6,7-dihydro-1H-pyrrolo[2,3-c]pyridin-3-yl)-1H-indol-4-yl)isobutyramide]

— patent publication US11840533B2, “Pyridinone-based epigenetic modifiers and uses thereof” (THE BOARD OF TRUSTEES OF THE UNIVERSITY OF ILLINOIS, priority 2017, dated 2023)
